Like-named read-outs stand apart in the source and are kept apart here.
System: Chlamydia trachomatis L2/434/Bu
Assay type: cell-based
Conditions: HeLa cells, maximum concentration (20 μg) tested

Substance: oligomannose 9
- % INHIBITION (infectivity inhibition) (first of two separate sets of experiments): 64%
- % INHIBITION (infectivity inhibition) (second of two separate sets of experiments): 62%

Reference: US7517851B2, “Chlamydia oligosaccharides” (priority 1996, dated 2009)
